From US20210403567A1, “METHODS OF TREATING CERVICAL CANCER BY ADMINISTERING A PD-1 INHIBITOR” (priority 2020, published 2021)
Entries after “also recorded” stand apart in the source; their conditions may differ. Marks after values point to notes of the source that are not given here.

Tested on: recurrent or metastatic cervical cancer
Experiment: Phase 3 trial, cemiplimab versus IC chemotherapy: quality of life, EORTC QLQ-C30 (GHS/QoL, functioning and symptom scales), MMRM LS mean change from baseline
Assay type: in vivo, human
Conditions: for Overall difference in LS mean change from baseline (95% CI), GHS/QoL / Overall difference in LS mean change from baseline (95% CI), Physical functioning / Overall difference in LS mean change from baseline (95% CI), Role functioning / Overall difference in LS mean change from baseline (95% CI), Appetite loss / Overall difference in LS mean change from baseline (95% CI), Fatigue / Overall difference in LS mean change from baseline (95% CI), Pain: cemiplimab minus chemotherapy; for Overall difference in LS mean change from baseline (95% CI), GHS/QoL / Overall difference in LS mean change from baseline (95% CI), Physical functioning / Overall difference in LS mean change from baseline (95% CI), Role functioning: positive numbers favor cemiplimab; for Overall difference in LS mean change from baseline (95% CI), Appetite loss / Overall difference in LS mean change from baseline (95% CI), Fatigue / Overall difference in LS mean change from baseline (95% CI), Pain: EORTC QLQ-C30 symptom scale, negative numbers favor cemiplimab
Protocol: QOL is measured by the EORTC QLQ-C30.
Quality of Life Questionnaires: Patient-reported outcomes are measured using the validated patient self-administered EORTC QLQ-C30 questionnaire. Patients are asked to complete these questionnaires prior to any study procedures being performed at a given study visit (during the on-study/treatment and follow-up periods).
QoL: Longitudinal change from baseline at each PRO assessment in the GHS/QoL and PF scales was analyzed using a mixed model with repeated measures (MMRM). Higher scores on these scales indicate better health status/function. […] The model generated least squares (LS) mean estimates, standard errors, 95% CIs and p-values (where applicable) for mean changes from baseline on each PRO assessment.
At baseline and Day 1 of each treatment cycle (up to 16), patients were administered the EORTC QLQ-030. Mixed-effects repeated measures models estimated least squares (LS) mean change from baseline across all scales. Responder analyses determined the proportions with clinically meaningful (using 10-point threshold) improvement or deterioration, or stability on QLQ-030.

[1] = EORTC QLQ-C30, Overall population
[2] = SCC patients, Overall Across Cycles
[3] = overall population, Overall Across Cycles

cemiplimab
Overall difference in LS mean change from baseline (95% CI), GHS/QoL (EORTC QLQ-C30, AC (post-hoc)): 2.0 (−5.4; 9.3) | Overall difference in LS mean change from baseline (95% CI), Physical functioning (EORTC QLQ-C30, AC (post-hoc)): 2.6 (−4.3; 9.5) | Overall difference in LS mean change from baseline (95% CI), Role functioning (EORTC QLQ-C30, AC (post-hoc)): 8.3 (−0.0; 16.6) | Overall difference in LS mean change from baseline (95% CI), GHS/QoL [1]: 7.8 (3.3; 12.3)* | Overall difference in LS mean change from baseline (95% CI), Physical functioning [1]: 8.3 (4.3; 12.2)* | Overall difference in LS mean change from baseline (95% CI), Role functioning [1]: 13.1 (8.3; 17.9)^‡ | Overall difference in LS mean change from baseline (95% CI), GHS/QoL (EORTC QLQ-C30, SCC): 8.5 (3.8; 13.2)^† | Overall difference in LS mean change from baseline (95% CI), Physical functioning (EORTC QLQ-C30, SCC): 8.4 (4.1; 12.6)^† | Overall difference in LS mean change from baseline (95% CI), Role functioning (EORTC QLQ-C30, SCC): 11.4 (6.3; 16.6)^‡ | Overall difference in LS mean change from baseline (95% CI), Appetite loss (AC (post-hoc)): −5.9 (−19.8; 2.4) | Overall difference in LS mean change from baseline (95% CI), Fatigue (AC (post-hoc)): −5.9 (−13.9; 2.2) | Overall difference in LS mean change from baseline (95% CI), Pain (AC (post-hoc)): −7.6 (−17.1; 1.9) | Overall difference in LS mean change from baseline (95% CI), Appetite loss (Overall population): −11.3 (−16.6; −6.0)^‡ | Overall difference in LS mean change from baseline (95% CI), Fatigue (Overall population): −9.1 (−14.1; −4.0)^‡ | Overall difference in LS mean change from baseline (95% CI), Pain (Overall population): −10.2 (−16.2; −4.3)^‡ | Overall difference in LS mean change from baseline (95% CI), Appetite loss (SCC): −10.9 (−16.6; −5.2)^‡ | Overall difference in LS mean change from baseline (95% CI), Fatigue (SCC): −8.6 (−14.0; −3.3)^‡ | Overall difference in LS mean change from baseline (95% CI), Pain (SCC): −10.4 (−16.9; −3.8)^‡ | Difference in LS mean change, Cemiplimab versus Chemotherapy, GHS/QoL (SCC patients, C2D1): 4.14 | Difference in LS mean change, Cemiplimab versus Chemotherapy, Physical Functioning (SCC patients, C2D1): 4.09 | LS mean change from baseline, EORTC QLQ-C30 GHS/QoL (SCC patients, C2D1): −2.02 | LS mean change from baseline, EORTC QLQ-C30 Physical Functioning (SCC patients, C2D1): −1.82 | Difference in LS mean change, Cemiplimab versus Chemotherapy, GHS/QoL (SCC patients, C3D1): 9.41 | Difference in LS mean change, Cemiplimab versus Chemotherapy, Physical Functioning (SCC patients, C3D1): 7.33 | LS mean change from baseline, EORTC QLQ-C30 GHS/QoL (SCC patients, C3D1): 1.18 | LS mean change from baseline, EORTC QLQ-C30 Physical Functioning (SCC patients, C3D1): 2.10 | Difference in LS mean change, Cemiplimab versus Chemotherapy, GHS/QoL (SCC patients, C4D1): 12.36 | Difference in LS mean change, Cemiplimab versus Chemotherapy, Physical Functioning (SCC patients, C4D1): 10.41 | LS mean change from baseline, EORTC QLQ-C30 GHS/QoL (SCC patients, C4D1): 5.15 | LS mean change from baseline, EORTC QLQ-C30 Physical Functioning (SCC patients, C4D1): 5.21 | Difference in LS mean change, Cemiplimab versus Chemotherapy, GHS/QoL (SCC patients, C5D1): 6.94 | Difference in LS mean change, Cemiplimab versus Chemotherapy, Physical Functioning (SCC patients, C5D1): 6.86 | LS mean change from baseline, EORTC QLQ-C30 GHS/QoL (SCC patients, C5D1): 0.85 | LS mean change from baseline, EORTC QLQ-C30 Physical Functioning (SCC patients, C5D1): −0.17 | Difference in LS mean change, Cemiplimab versus Chemotherapy, GHS/QoL (SCC patients, C6D1): 6.83 | Difference in LS mean change, Cemiplimab versus Chemotherapy, Physical Functioning (SCC patients, C6D1): 7.11 | LS mean change from baseline, EORTC QLQ-C30 GHS/QoL (SCC patients, C6D1): −0.17 | LS mean change from baseline, EORTC QLQ-C30 Physical Functioning (SCC patients, C6D1): 0.82 | Difference in LS mean change, Cemiplimab versus Chemotherapy, GHS/QoL (SCC patients, C7D1): 11.25 | Difference in LS mean change, Cemiplimab versus Chemotherapy, Physical Functioning (SCC patients, C7D1): 14.30 | LS mean change from baseline, EORTC QLQ-C30 GHS/QoL (SCC patients, C7D1): 2.09 | LS mean change from baseline, EORTC QLQ-C30 Physical Functioning (SCC patients, C7D1): −0.07 | Difference in LS mean change, Cemiplimab versus Chemotherapy, GHS/QoL [2]: 8.49 | Difference in LS mean change, Cemiplimab versus Chemotherapy, Physical Functioning [2]: 8.35 | LS mean change from baseline, EORTC QLQ-C30 GHS/QoL [2]: 1.18 | LS mean change from baseline, EORTC QLQ-C30 Physical Functioning [2]: 1.01 | Difference in LS mean change, Cemiplimab versus Chemotherapy, GHS/QoL (overall population, C2D1): 3.25 | LS mean change from baseline, EORTC QLQ-C30 GHS/QoL (overall population, C2D1): −1.03 | LS mean change from baseline, EORTC QLQ-C30 Physical Functioning (overall population, C2D1): −2.41 | Difference in LS mean change, Cemiplimab versus Chemotherapy, GHS/QoL (overall population, C3D1): 7.41 | Difference in LS mean change, Cemiplimab versus Chemotherapy, Physical Functioning (overall population, C3D1): 6.02 | LS mean change from baseline, EORTC QLQ-C30 GHS/QoL (overall population, C3D1): 1.19 | LS mean change from baseline, EORTC QLQ-C30 Physical Functioning (overall population, C3D1): 0.49 | Difference in LS mean change, Cemiplimab versus Chemotherapy, GHS/QoL (overall population, C4D1): 10.55 | Difference in LS mean change, Cemiplimab versus Chemotherapy, Physical Functioning (overall population, C4D1): 932 | LS mean change from baseline, EORTC QLQ-C30 GHS/QoL (overall population, C4D1): 4.47 | LS mean change from baseline, EORTC QLQ-C30 Physical Functioning (overall population, C4D1): 2.38 | Difference in LS mean change, Cemiplimab versus Chemotherapy, GHS/QoL (overall population, C5D1): 5.66 | Difference in LS mean change, Cemiplimab versus Chemotherapy, Physical Functioning (overall population, C5D1): 6.74 | LS mean change from baseline, EORTC QLQ-C30 GHS/QoL (overall population, C5D1): 0.48 | LS mean change from baseline, EORTC QLQ-C30 Physical Functioning (overall population, C5D1): −1.27 | Difference in LS mean change, Cemiplimab versus Chemotherapy, GHS/QoL (overall population, C6D1): 5.44 | Difference in LS mean change, Cemiplimab versus Chemotherapy, Physical Functioning (overall population, C6D1): 6.93 | LS mean change from baseline, EORTC QLQ-C30 GHS/QoL (overall population, C6D1): −0.29 | LS mean change from baseline, EORTC QLQ-C30 Physical Functioning (overall population, C6D1): −1.34 | Difference in LS mean change, Cemiplimab versus Chemotherapy, GHS/QoL (overall population, C7D1): 8.30 | Difference in LS mean change, Cemiplimab versus Chemotherapy, Physical Functioning (overall population, C7D1): 11.66 | LS mean change from baseline, EORTC QLQ-C30 GHS/QoL (overall population, C7D1): 3.32 | LS mean change from baseline, EORTC QLQ-C30 Physical Functioning (overall population, C7D1): −0.10 | Difference in LS mean change, Cemiplimab versus Chemotherapy, GHS/QoL (overall population, C8D1): 14.08 | Difference in LS mean change, Cemiplimab versus Chemotherapy, Physical Functioning (overall population, C8D1): 12.96 | LS mean change from baseline, EORTC QLQ-C30 GHS/QoL (overall population, C8D1): −1.09 | LS mean change from baseline, EORTC QLQ-C30 Physical Functioning (overall population, C8D1): −0.89 | course of GHS/QoL from baseline (overall population, EORTC QLQ-C30): improved or maintained GHS/QoL from baseline; also recorded: generally improve or maintain their baseline GHS/QOL | Difference in LS mean change, Cemiplimab versus Chemotherapy, GHS/QoL [3]: 7.81 | Difference in LS mean change, Cemiplimab versus Chemotherapy, Physical Functioning [3]: 8.26 | LS mean change from baseline, EORTC QLQ-C30 GHS/QoL [3]: 1.01 | LS mean change from baseline, EORTC QLQ-C30 Physical Functioning [3]: −0.45
